# From patent publication US10392404B2, “Compounds and compositions as kinase inhibitors” (NOVARTIS AG, priority 2014, dated 2019)
# Key:
# C-RAF = molecular target: T1, C-RAF (Homo sapiens, UniProt P04049, Y340E/Y341E); experiment: In vitro Raf activity determination (Alpha Screen, biotinylated kinase-dead MEK1 substrate), C-Raf; format: biochemical; conditions: c-Raf approximately 4 nM; ATP 1 μM; pre-incubation 60 minutes; reaction 1 hour at room temperature
# T1 construct: His tag (implied by nickel chromatography) (cleaved yes); StrepII tag (cleaved yes); made in house; host or cells: Sf9 insect cells (baculovirus), CRAF and h14-3-3 zeta co-expressed; MEK1 substrate from E. coli
# T1 sequence (P04049 whole entry Y340E/Y341E): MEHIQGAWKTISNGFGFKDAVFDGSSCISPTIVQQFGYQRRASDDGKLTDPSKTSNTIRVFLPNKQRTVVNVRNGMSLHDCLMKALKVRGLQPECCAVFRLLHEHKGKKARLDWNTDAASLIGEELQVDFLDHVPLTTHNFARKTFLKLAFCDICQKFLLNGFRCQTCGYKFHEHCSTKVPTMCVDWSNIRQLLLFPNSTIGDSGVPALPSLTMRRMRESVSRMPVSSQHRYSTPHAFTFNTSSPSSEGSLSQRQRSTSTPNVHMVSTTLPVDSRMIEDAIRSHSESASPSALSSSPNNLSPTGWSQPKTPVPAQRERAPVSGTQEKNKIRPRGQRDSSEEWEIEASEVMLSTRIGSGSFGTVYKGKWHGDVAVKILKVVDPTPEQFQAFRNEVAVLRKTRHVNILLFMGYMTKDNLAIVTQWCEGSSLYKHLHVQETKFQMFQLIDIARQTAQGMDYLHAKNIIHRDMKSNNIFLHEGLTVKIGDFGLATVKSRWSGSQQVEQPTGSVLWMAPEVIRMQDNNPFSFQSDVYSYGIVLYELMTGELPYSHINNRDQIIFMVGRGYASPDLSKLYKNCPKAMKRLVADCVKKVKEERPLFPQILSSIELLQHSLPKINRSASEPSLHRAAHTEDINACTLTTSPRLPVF
# T1 sequence (P63104 whole entry partner): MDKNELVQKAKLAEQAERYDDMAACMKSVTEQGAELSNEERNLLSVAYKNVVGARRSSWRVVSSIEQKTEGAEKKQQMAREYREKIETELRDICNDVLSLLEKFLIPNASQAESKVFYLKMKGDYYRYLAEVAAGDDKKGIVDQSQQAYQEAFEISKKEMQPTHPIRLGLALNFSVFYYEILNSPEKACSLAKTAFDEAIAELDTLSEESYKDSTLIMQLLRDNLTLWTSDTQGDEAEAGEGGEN
# Procedure, shortened: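 AlphaScreen read-out of MEK phosphorylation using an anti-phospho-MEK1/2 antibody after a 1 hour room-temperature reaction at 1 μM ATP. Enzyme: approximately 4 nM Sf9-expressed full-length activated C-Raf (Y340E/Y341E, with 14-3-3ζ) on approximately 10 nM biotinylated K97R MEK1, after 60 min compound preincubation. IC50 by non-linear fit.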
# b-Raf (V600E) = molecular target: T2, b-Raf (V600E) (Homo sapiens, UniProt P15056, V600E); experiment: In vitro Raf activity determination (Alpha Screen, biotinylated kinase-dead MEK1 substrate), B-Raf; format: biochemical; conditions: b-Raf (V600E) approximately 4 pM; ATP 10 μM; pre-incubation 60 minutes; reaction 3 hours at room temperature
# T2 construct: made in house
# T2 sequence (P15056 whole entry V600E): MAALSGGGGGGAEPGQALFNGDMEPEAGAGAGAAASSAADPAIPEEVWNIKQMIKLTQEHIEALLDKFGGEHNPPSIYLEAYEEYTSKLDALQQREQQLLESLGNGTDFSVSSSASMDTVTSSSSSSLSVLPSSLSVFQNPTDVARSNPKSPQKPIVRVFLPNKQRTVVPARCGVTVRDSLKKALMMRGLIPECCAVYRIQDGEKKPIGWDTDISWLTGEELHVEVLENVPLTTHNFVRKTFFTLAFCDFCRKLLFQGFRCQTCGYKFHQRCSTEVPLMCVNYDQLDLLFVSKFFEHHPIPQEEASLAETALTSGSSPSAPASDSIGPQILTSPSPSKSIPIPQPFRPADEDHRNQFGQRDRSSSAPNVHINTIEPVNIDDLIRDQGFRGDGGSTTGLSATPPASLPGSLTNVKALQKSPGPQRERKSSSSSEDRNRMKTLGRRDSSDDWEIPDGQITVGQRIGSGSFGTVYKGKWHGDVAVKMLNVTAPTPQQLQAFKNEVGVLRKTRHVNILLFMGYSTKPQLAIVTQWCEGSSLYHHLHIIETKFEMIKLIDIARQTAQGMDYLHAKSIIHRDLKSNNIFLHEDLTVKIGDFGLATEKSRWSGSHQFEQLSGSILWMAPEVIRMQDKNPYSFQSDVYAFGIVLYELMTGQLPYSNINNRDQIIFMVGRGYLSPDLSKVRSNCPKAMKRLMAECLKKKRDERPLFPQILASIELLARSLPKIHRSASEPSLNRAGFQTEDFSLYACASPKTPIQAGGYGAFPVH
# Procedure, shortened: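 IC50 from non-linear regression of AlphaScreen phospho-MEK signal (anti-p-MEK1/2 antibody). b-Raf(V600E), about 4 pM, phosphorylated ~10 nM biotinylated K97R MEK1 with 10 μM ATP for 3 h at room temperature after 60 min compound pre-incubation; buffer pH 7.5 Tris, 15 mM MgCl2, 1 mM DTT.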
smiles,measurement,setting,value
"Cc1ncc(NC(=O)c2cc(C(C)(C)F)ccn2)cc1-c1cnc(N2CCOCC2)c(C#N)c1 [Example 242, N-(5′-cyano-2-methyl-6′-morpholino-[3,3′-bipyridin]-5-yl)-4-(2-fluoropropan-2-yl)picolinamide]",IC50,C-RAF,0.539 nM
same,IC50,b-Raf (V600E),3.18 nM
"Cc1ncc(NC(=O)c2cc(C(C)(C)F)ccn2)cc1-c1cnc(N2CC(C)(O)C2)c(C#N)c1 [Example 243, N-(5′-cyano-6′-(3-hydroxy-3-methylazetidin-1-yl)-2-methyl-[3,3′-bipyridin]-5-yl)-4-(2-fluoropropan-2-yl)picolinamide]",IC50,C-RAF,1.03 nM
same,IC50,b-Raf (V600E),9.83 nM
"Cc1ccc(NC(=O)c2cc(C(C)(C)F)ccn2)cc1-c1cnc(N2CC(C)(O)C2)c(C#N)c1 [Example 244, N-(3-(5-cyano-6-(3-hydroxy-3-methylazetidin-1-yl)pyridin-3-yl)-4-methylphenyl)-4-(2-fluoropropan-2-yl)picolinamide]",IC50,C-RAF,0.876 nM
same,IC50,b-Raf (V600E),7.18 nM
"Cc1ccc(NC(=O)c2cc(C(C)(C)F)ccn2)cc1-c1cnc(N2CCOCC2)c(C#N)c1 [Example 245, N-(3-(5-cyano-6-morpholinopyridin-3-yl)-4-methylphenyl)-4-(2-fluoropropan-2-yl)picolinamide]",IC50,C-RAF,0.533 nM
same,IC50,b-Raf (V600E),3.24 nM
"Cc1ncc(NC(=O)c2cc(C(C)(C)N)cc(C(F)(F)F)c2)cc1-c1cnc(N2CCOCC2)c(C#N)c1 [Example 246, 3-(2-aminopropan-2-yl)-N-(5′-cyano-2-methyl-6′-morpholino-[3,3′-bipyridin]-5-yl)-5-(trifluoromethyl) benzamide]",IC50,C-RAF,1.85 nM
same,IC50,b-Raf (V600E),7.67 nM
"Cc1ncc(NC(=O)c2cc(C(C)(C)N)cc(C(F)(F)F)c2)cc1-c1cnc(N2CC(C)(O)C2)c(C#N)c1 [Example 247, 3-(2-aminopropan-2-yl)-N-(5′-cyano-6′-(3-hydroxy-3-methylazetidin-1-yl)-2-methyl-[3,3′-bipyridin]-5-yl)-5-(trifluoromethyl) benzamide]",IC50,C-RAF,4.96 nM
same,IC50,b-Raf (V600E),30.7 nM
"Cc1ccc(NC(=O)c2cc(C(C)(C)N)cc(C(F)(F)F)c2)cc1-c1cnc(N2CC(C)(O)C2)c(C#N)c1 [Example 248, 3-(2-aminopropan-2-yl)-N-(3-(5-cyano-6-(3-hydroxy-3-methylazetidin-1-yl)pyridin-3-yl)-4-methylphenyl)-5-(trifluoromethyl) benzamide]",IC50,C-RAF,2.02 nM
same,IC50,b-Raf (V600E),10.6 nM
"Cc1ccc(NC(=O)c2cc(C(C)(C)N)cc(C(F)(F)F)c2)cc1-c1cnc(N2CCOCC2)c(C#N)c1 [Example 249, 3-(2-aminopropan-2-yl)-N-(3-(5-cyano-6-morpholinopyridin-3-yl)-4-methylphenyl)-5-(trifluoromethyl) benzamide]",IC50,C-RAF,0.653 nM
same,IC50,b-Raf (V600E),2.54 nM
"CCn1cc(C(=O)Nc2ccc(C)c(-c3cnc(N(C)C)c(C#N)c3)c2)cc(C(F)(F)F)c1=O [Example 250, N-(3-(5-cyano-6-(dimethylamino)pyridin-3-yl)-4-methylphenyl)-1-ethyl-6-oxo-5-(trifluoromethyl)-1,6-dihydropyridine-3-carboxamide]",IC50,C-RAF,0.401 nM
same,IC50,b-Raf (V600E),1.96 nM
"CCn1cc(C(=O)Nc2ccc(C)c(-c3cnc(N(C)C)c(C#N)c3)c2)c(C)n1 [Example 251, N-(3-(5-cyano-6-(dimethylamino)pyridin-3-yl)-4-methylphenyl)-1-ethyl-3-methyl-1H-pyrazole-4-carboxamide]",IC50,C-RAF,7.28 nM
same,IC50,b-Raf (V600E),59.7 nM
"Cc1ccc(NC(=O)c2cn(C)nc2C)cc1-c1cnc(N(C)C)c(C#N)c1 [Example 252, N-(3-(5-cyano-6-(dimethylamino)pyridin-3-yl)-4-methylphenyl)-1,3-dimethyl-1H-pyrazole-4-carboxamide]",IC50,C-RAF,17.6 nM
same,IC50,b-Raf (V600E),196 nM
"Cc1ccc(NC(=O)c2cn(C(C)C)nc2C)cc1-c1cnc(N(C)C)c(C#N)c1 [Example 253, N-(3-(5-cyano-6-(dimethylamino)pyridin-3-yl)-4-methylphenyl)-1-isopropyl-3-methyl-1H-pyrazole-4-carboxamide]",IC50,C-RAF,2.5 nM
same,IC50,b-Raf (V600E),16.5 nM
"Cc1cc(C(=O)Nc2ccc(C)c(-c3cnc(N(C)C)c(C#N)c3)c2)n(C)n1 [Example 254, N-(3-(5-cyano-6-(dimethylamino)pyridin-3-yl)-4-methylphenyl)-1,3-dimethyl-1H-pyrazole-5-carboxamide]",IC50,C-RAF,38.4 nM
same,IC50,b-Raf (V600E),278 nM
"Cc1ccc(NC(=O)c2cc(C3CC3)nn2C)cc1-c1cnc(N(C)C)c(C#N)c1 [Example 255, N-(3-(5-cyano-6-(dimethylamino)pyridin-3-yl)-4-methylphenyl)-3-cyclopropyl-1-methyl-1H-pyrazole-5-carboxamide]",IC50,C-RAF,4.84 nM
same,IC50,b-Raf (V600E),35.6 nM
"Cc1ccc(NC(=O)c2ccnc(C(C)(C)O)c2)cc1-c1cnc(N(C)C)c(C#N)c1 [Example 256, N-(3-(5-cyano-6-(dimethylamino)pyrdin-3-yl)-4-methylphenyl)-2-(2-hydroxypropan-2-yl)isonicotinamide]",IC50,C-RAF,0.353 nM
same,IC50,b-Raf (V600E),1.52 nM
"Cc1cc(CC(=O)Nc2ccc(C)c(-c3cnc(N(C)C)c(C#N)c3)c2)on1 [Example 257, N-(3-(5-cyano-6-(dimethylamino)pyridin-3-yl)-4-methylphenyl)-2-(3-methylisoxazol-5-yl)acetamide]",IC50,C-RAF,1.36 nM
same,IC50,b-Raf (V600E),12.9 nM
"Cc1ccc(NC(=O)c2cc(C(C)C)on2)cc1-c1cnc(N(C)C)c(C#N)c1 [Example 258, N-(3-(5-cyano-6-(dimethylamino)pyridin-3-yl)-4-methylphenyl)-5-isopropylisoxazole-3-carboxamide]",IC50,C-RAF,0.158 nM
same,IC50,b-Raf (V600E),1.18 nM
"Cc1ccc(NC(=O)c2cc(C3CC3)on2)cc1-c1cnc(N(C)C)c(C#N)c1 [Example 259, N-(3-(5-cyano-6-(dimethylamino)pyridin-3-yl)-4-methylphenyl)-5-cyclopropylisoxazole-3-carboxamide]",IC50,C-RAF,0.435 nM
same,IC50,b-Raf (V600E),3.79 nM
"Cc1ccc(NC(=O)c2cccc(S(C)(=O)=O)c2)cc1-c1cnc(N(C)C)c(C#N)c1 [Example 260, N-(3-(5-cyano-6-(dimethylamino)pyridin-3-yl)-4-methylphenyl)-3-(methylsulfonyl) benzamide]",IC50,C-RAF,0.115 nM
same,IC50,b-Raf (V600E),0.297 nM
"Cc1ccc(NC(=O)c2ccnc(S(C)(=O)=O)c2)cc1-c1cnc(N(C)C)c(C#N)c1 [Example 261, N-(3-(5-cyano-6-(dimethylamino)pyridin-3-yl)-4-methylphenyl)-2-(methylsulfonyl) isonicotinamide]",IC50,C-RAF,0.106 nM
same,IC50,b-Raf (V600E),0.71 nM
"Cc1ncc(NC(=O)c2cc(C3CC3)on2)cc1-c1cnc(N(C)C)c(C#N)c1 [Example 262, N-(5′-cyano-6′-(dimethylamino)-2-methyl-[3,3′-bipyridin]-5-yl)-5-cyclopropylisoxazole-3-carboxamide]",IC50,C-RAF,2.16 nM
same,IC50,b-Raf (V600E),10.9 nM
"CCn1cc(C(=O)Nc2cnc(C)c(-c3cnc(N(C)C)c(C#N)c3)c2)c(C)n1 [Example 263, N-(5′-cyano-6′-(dimethylamino)-2-methyl-[3,3′-bipyridin]-5-yl)-1-ethyl-3-methyl-1H-pyrazole-4-carboxamide]",IC50,C-RAF,55.3 nM
same,IC50,b-Raf (V600E),884 nM
"Cc1nn(C)cc1C(=O)Nc1cnc(C)c(-c2cnc(N(C)C)c(C#N)c2)c1 [Example 264, N-(5′-cyano-6′-(dimethylamino)-2-methyl-[3,3′-bipyridin]-5-yl)-1,3-dimethyl-1H-pyrazole-4-carboxamide]",IC50,C-RAF,148 nM
same,IC50,b-Raf (V600E),1970 nM
"Cc1ncc(NC(=O)c2cc(C3CC3)nn2C)cc1-c1cnc(N(C)C)c(C#N)c1 [Example 266, N-(5′-cyano-6′-(dimethylamino)-2-methyl-[3,3′-bipyridin]-5-yl)-3-cyclopropyl-1-methyl-1H-pyrazole-5-carboxamide]",IC50,C-RAF,30.8 nM
same,IC50,b-Raf (V600E),404 nM
"Cc1ncc(NC(=O)c2cc(C(F)(F)F)nn2C)cc1-c1cnc(N(C)C)c(C#N)c1 [Example 267, N-(5′-cyano-6′-(dimethylamino)-2-methyl-[3,3′-bipyridin]-5-yl)-1-methyl-3-(trifluoromethyl)-1H-pyrazole-5-carboxamide]",IC50,C-RAF,196 nM
same,IC50,b-Raf (V600E),1660 nM
"Cc1cc(CC(=O)Nc2cnc(C)c(-c3cnc(N(C)C)c(C#N)c3)c2)on1 [Example 268, N-(5′-cyano-6′-(dimethylamino)-2-methyl-[3,3′-bipyridin]-5-yl)-2-(3-methylisoxazol-5-yl)acetamide]",IC50,C-RAF,8 nM
same,IC50,b-Raf (V600E),94.2 nM
"Cc1ncc(NC(=O)c2cc(C(C)C)on2)cc1-c1cnc(N(C)C)c(C#N)c1 [Example 269, N-(5′-cyano-6′-(dimethylamino)-2 methyl-[3,3′-bipyridin]-5-yl)-5-isopropylisoxazole-3-carboxamide]",IC50,C-RAF,0.636 nM
same,IC50,b-Raf (V600E),6.15 nM
"Cc1ncc(NC(=O)c2cccc(S(C)(=O)=O)c2)cc1-c1cnc(N(C)C)c(C#N)c1 [Example 270, N-(5′-cyano-6′-(dimethylamino)-2-methyl-[3,3′-bipyridin]-5-yl)-3-(methylsulfonyl) benzamade]",IC50,C-RAF,0.49 nM
same,IC50,b-Raf (V600E),5.41 nM
"Cc1ncc(NC(=O)c2ccnc(S(C)(=O)=O)c2)cc1-c1cnc(N(C)C)c(C#N)c1 [Example 271, N-(5′-cyano-6′-(dimethylamino)-2-methyl-[3,3′-bipyridin]-5-yl)-2-(methylsulfonyl) isonicotinamide]",IC50,C-RAF,1.15 nM
same,IC50,b-Raf (V600E),11.2 nM
